# Measurements: article PMC7827406, “Structure–Activity Relationship (SAR) Study of Spautin-1 to Entail the Discovery of Novel NEK4 Inhibitors” (International Journal of Molecular Sciences, 2021)
# Like-named read-outs stand apart in the source and are kept apart here.
# How the values were obtained:
# Assay in all cases: biochemical
# Design in all cases: Eurofins KinaseProfiler full panel at Km ATP, residual kinase activity (%) relative to DMSO
# CDK9/cyclin T1(h) = CDK9/cyclin T1(h) (Homo sapiens, UniProt P50750)
# Method in brief: (§1)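 Radiometric kinase activity assays were run with ATP at Km and compounds at 10 µM, and remaining activity (%) was reported. A separate competitive binding screen measured DNA-tagged kinase displaced from immobilized active-site ligands by qPCR, giving percent kinase still bound at 10 µM compound in DMSO.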
# Mer(h) = target: T1, Mer(h) (Homo sapiens, UniProt Q12866)
# T1 construct: gene MERTK
# T1 sequence (Q12866 1-999): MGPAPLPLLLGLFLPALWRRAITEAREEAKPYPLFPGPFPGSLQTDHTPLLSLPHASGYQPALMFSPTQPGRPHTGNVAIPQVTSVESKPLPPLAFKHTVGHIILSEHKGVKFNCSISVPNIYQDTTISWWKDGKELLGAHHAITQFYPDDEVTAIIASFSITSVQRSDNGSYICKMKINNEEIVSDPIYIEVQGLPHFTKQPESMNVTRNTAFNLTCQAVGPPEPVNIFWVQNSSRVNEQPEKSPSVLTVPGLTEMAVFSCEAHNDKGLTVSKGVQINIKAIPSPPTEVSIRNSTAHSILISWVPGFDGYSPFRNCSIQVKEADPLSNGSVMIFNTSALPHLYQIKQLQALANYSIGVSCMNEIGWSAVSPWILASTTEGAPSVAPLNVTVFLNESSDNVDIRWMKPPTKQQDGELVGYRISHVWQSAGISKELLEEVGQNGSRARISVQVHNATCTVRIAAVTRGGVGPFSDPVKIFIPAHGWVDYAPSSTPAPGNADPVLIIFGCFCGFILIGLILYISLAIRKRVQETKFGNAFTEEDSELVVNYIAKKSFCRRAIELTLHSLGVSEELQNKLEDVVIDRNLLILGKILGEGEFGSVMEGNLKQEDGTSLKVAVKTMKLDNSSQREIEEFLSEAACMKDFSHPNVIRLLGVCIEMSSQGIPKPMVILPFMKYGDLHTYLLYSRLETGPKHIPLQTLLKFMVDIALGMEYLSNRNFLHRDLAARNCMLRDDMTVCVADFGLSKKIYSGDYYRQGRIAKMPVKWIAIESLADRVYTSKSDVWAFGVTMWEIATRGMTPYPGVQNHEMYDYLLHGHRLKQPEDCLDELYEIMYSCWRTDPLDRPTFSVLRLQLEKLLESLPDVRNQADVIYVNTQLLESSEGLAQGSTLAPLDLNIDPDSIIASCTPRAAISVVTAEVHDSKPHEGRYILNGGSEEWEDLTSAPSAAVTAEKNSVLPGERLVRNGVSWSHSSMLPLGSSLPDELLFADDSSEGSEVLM
# Method in brief: as §1
# EphB2(h) = target: T2, EphB2(h) (Homo sapiens, UniProt P29323)
# T2 sequence (P29323 1-1055): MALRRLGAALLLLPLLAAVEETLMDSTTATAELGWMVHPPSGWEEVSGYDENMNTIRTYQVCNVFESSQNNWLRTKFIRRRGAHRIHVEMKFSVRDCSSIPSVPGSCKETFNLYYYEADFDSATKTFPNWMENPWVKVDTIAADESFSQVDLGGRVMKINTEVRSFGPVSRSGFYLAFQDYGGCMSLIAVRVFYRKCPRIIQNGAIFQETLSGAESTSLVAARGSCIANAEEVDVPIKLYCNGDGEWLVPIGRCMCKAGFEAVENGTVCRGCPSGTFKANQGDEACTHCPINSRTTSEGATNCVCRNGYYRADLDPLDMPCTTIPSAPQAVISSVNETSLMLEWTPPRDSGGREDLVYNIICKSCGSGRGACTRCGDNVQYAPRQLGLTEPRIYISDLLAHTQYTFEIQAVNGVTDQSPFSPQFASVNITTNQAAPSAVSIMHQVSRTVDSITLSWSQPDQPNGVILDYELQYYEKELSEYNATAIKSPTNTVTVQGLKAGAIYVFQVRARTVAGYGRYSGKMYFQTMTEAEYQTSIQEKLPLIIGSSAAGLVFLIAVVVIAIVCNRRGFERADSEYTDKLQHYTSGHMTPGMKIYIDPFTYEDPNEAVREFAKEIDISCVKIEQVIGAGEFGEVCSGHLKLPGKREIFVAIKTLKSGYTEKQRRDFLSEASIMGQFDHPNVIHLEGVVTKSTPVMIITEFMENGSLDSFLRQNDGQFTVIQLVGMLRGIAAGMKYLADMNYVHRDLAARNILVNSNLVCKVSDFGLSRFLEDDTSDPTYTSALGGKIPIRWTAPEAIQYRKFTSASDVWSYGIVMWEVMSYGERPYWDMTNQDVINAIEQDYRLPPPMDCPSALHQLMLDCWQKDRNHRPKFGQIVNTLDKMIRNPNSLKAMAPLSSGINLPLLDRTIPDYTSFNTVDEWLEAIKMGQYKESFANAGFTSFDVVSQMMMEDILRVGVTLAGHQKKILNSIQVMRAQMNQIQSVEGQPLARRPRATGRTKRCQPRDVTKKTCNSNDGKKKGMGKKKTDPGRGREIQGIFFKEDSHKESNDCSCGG
# Method in brief: as §1
# [1] = read-out: Residual activity (%) Spautin-1 5aa
# [2] = read-out: Residual activity (%) 5as
# [3] = read-out: Residual activity (%) 5at
# [4] = read-out: Residual activity (%) 5ay
# Sequence of CDK9/cyclin T1(h) (P50750 whole entry): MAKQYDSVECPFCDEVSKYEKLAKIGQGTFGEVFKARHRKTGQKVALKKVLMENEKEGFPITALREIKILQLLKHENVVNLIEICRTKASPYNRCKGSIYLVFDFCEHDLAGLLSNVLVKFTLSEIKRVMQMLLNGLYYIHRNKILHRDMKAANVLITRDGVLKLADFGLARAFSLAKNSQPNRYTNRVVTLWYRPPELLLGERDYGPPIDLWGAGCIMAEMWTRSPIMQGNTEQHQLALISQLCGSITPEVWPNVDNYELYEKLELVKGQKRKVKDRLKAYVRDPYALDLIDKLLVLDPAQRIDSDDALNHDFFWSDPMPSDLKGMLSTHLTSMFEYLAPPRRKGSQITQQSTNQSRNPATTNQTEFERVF
# Sequence of CDK9/cyclin T1(h) (O60563 whole entry partner): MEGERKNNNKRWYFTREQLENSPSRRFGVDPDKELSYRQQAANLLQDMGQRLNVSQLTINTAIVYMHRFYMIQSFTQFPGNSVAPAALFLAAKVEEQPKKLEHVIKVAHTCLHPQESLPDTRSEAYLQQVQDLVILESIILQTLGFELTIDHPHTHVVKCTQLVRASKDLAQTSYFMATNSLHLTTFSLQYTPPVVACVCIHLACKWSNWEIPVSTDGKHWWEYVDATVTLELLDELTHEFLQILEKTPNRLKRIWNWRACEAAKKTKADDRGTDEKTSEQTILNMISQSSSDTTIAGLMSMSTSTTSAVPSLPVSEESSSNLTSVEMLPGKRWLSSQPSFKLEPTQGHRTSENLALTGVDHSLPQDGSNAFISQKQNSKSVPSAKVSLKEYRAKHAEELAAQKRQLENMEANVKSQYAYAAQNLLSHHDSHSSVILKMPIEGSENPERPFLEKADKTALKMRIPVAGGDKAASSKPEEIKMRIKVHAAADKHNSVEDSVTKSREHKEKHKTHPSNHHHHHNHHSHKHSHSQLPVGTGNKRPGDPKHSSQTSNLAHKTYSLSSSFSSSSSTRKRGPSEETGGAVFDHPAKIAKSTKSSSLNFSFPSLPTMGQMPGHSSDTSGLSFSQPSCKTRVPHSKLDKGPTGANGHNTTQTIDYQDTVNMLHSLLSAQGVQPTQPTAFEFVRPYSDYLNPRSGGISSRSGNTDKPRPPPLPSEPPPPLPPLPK
smiles,measurement,setting,value
"Fc1ccc(CNc2ncnc3ccc(F)cc23)cc1 [5aa, 6-Fluoro-N-(4-fluorobenzyl)-4-Quinazolinamine]",remaining activity at 10 µM,CDK9/cyclin T1(h); [1],104%
same,remaining activity at 10 µM,Mer(h); [1],83%
same,remaining activity at 10 µM,EphB2(h); [1],96%
"Fc1ccc(CCNc2ncnc3ccc(F)cc23)cc1 [5as, 6-Fluoro-N-[2-(4-Fluorophenyl)Ethyl]-4-Quinazolinamine]",remaining activity at 10 µM,CDK9/cyclin T1(h); [2],93%
same,remaining activity at 10 µM,Mer(h); [2],83%
same,remaining activity at 10 µM,EphB2(h); [2],82%
"Fc1ccc2ncnc(NCCc3ccc(Cl)cc3)c2c1 [5at, N-[2-(4-Chlorophenyl)Ethyl]-6-Fluoro-4-Quinazolinamine]",remaining activity at 10 µM,CDK9/cyclin T1(h); [3],86%
same,remaining activity at 10 µM,Mer(h); [3],89%
same,remaining activity at 10 µM,EphB2(h); [3],93%
"COc1ccc2ncnc(Nc3cccc(F)c3)c2c1 [5ay, N-(3-Fluorophenyl)-6-Methoxy-4-Quinazolinamine]",remaining activity at 10 µM,CDK9/cyclin T1(h); [4],100%
same,remaining activity at 10 µM,Mer(h); [4],68%
same,remaining activity at 10 µM,EphB2(h); [4],97%
